In US20260200850A1, “CRYSTALLINE FORMS OF A PIPERIDINE INHIBITOR OF SLC6A19 FUNCTION” (Jnana Therapeutics Inc., priority 2022, published 2026):
Values after ≈ are worked out from the molar mass of the structure shown. Each block holds one compound with its values, some of them ahead of it.

Test: Solubility measurements of polymorphic Form I and II in biorelevant fluids
Assay type: physicochemical
Settings: for solubility at 1.5 h / solubility at 3 h / solubility at 24 h: thermodynamic from solid
Source text: Example 3: Solubility Measurements of Form I and Form II

solubility at 1.5 h (5% HPBCD/2% TPGS, 25 °C, aqueous with cosolvent or surfactant or cyclodextrin, 1.5 h): 4960 µg/mL (≈ 11900 µM)
solubility at 3 h (5% HPBCD/2% TPGS, 25 °C, aqueous with cosolvent or surfactant or cyclodextrin, 3 h): 5110 µg/mL (≈ 12200 µM)
solubility at 24 h (5% HPBCD/2% TPGS, 25 °C, aqueous with cosolvent or surfactant or cyclodextrin, 24 h): 5280 µg/mL (≈ 12600 µM)
solubility at 1.5 h (FaSSIF, 37 °C, 1.5 h): 360 µg/mL (≈ 860 µM)
solubility at 3 h (FaSSIF, 37 °C, 3 h): 380 µg/mL (≈ 908 µM)
solubility at 24 h (FaSSIF, 37 °C, 24 h): 350 µg/mL (≈ 837 µM)
Solubility (FeSSIF, 37° C., 1.5 h): 910 µg/mL (≈ 2170 µM)
Solubility (FeSSIF, 37° C., 3 h): 900 µg/mL (≈ 2150 µM)
Solubility (FeSSIF, 37° C., 24 h): 980 µg/mL (≈ 2340 µM)
solubility at 1.5 h (SGF, 37 °C, simulated gastric fluid, 1.5 h): 400 µg/mL (≈ 956 µM)
solubility at 3 h (SGF, 37 °C, simulated gastric fluid, 3 h): 420 µg/mL (≈ 1000 µM)
solubility at 24 h (SGF, 37 °C, simulated gastric fluid, 24 h): 370 µg/mL (≈ 884 µM)
Solubility, comparison of the forms (relevant biofluids, in words): increased solubility relative to Form II
SMILES: NC(=O)N1CCC[C@@H](N(C(=O)NCc2ccc(OC(F)(F)F)cc2F)C2CC2)C1 [Form I, (R)-3-(1-cyclopropyl-3-(2-fluoro-4-(trifluoromethoxy)benzyl)ureido) piperidine-1-carboxamide]

Solubility (5% HPBCD/2% TPGS, 25° C., 1.5 h): 4310 µg/mL (≈ 10300 µM)
Solubility (5% HPBCD/2% TPGS, 25° C., 3 h): 4270 µg/mL (≈ 10200 µM)
Solubility (5% HPBCD/2% TPGS, 25° C., 24 h): 4760 µg/mL (≈ 11400 µM)
Solubility (FaSSIF, 37° C., 1.5 h): 310 µg/mL (≈ 741 µM)
Solubility (FaSSIF, 37° C., 3 h): 270 µg/mL (≈ 645 µM)
Solubility (FaSSIF, 37° C., 24 h): 240 µg/mL (≈ 574 µM)
solubility at 1.5 h (FeSSIF, 37 °C, 1.5 h): 740 µg/mL (≈ 1770 µM)
solubility at 3 h (FeSSIF, 37 °C, 3 h): 720 µg/mL (≈ 1720 µM)
solubility at 24 h (FeSSIF, 37 °C, 24 h): 720 µg/mL (≈ 1720 µM)
Solubility (SGF, 37° C., 1.5 h): 260 µg/mL (≈ 621 µM)
Solubility (SGF, 37° C., 3 h): 270 µg/mL (≈ 645 µM)
Solubility (SGF, 37° C., 24 h): 300 µg/mL (≈ 717 µM)
SMILES: NC(=O)N1CCC[C@@H](N(C(=O)NCc2ccc(OC(F)(F)F)cc2F)C2CC2)C1 [Form II, (R)-3-(1-cyclopropyl-3-(2-fluoro-4-(trifluoromethoxy)benzyl)ureido) piperidine-1-carboxamide]
